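Five compound concentrations were applied to cells in 96-well plates for 48 hours; endpoints were derived by simple linear interpolation of the resulting dose-response curve. The concentration for 50% growth inhibition is given as GI50.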 Active and inactive are the calls of the source. Cut-off read from the data, not from the text of the source: active = GI50 up to about 1.1 µM and inactive = higher.
Columns and labels:
Experiment in all cases: NCI anticancer screen, dose series, 48 h
EKVX = tested on: EKVX
HOP-18 = tested on: HOP-18
UACC-62 = tested on: UACC-62
SF-539 = tested on: SF-539
ACHN = tested on: ACHN
SF-295 = tested on: SF-295
786-0 = tested on: 786-0
A498 = tested on: A498
A549 = tested on: A549
NCI-H522 = tested on: NCI-H522
SK-MEL-28 = tested on: SK-MEL-28
OVCAR-4 = tested on: OVCAR-4
OVCAR-5 = tested on: OVCAR-5
HOP-62 = tested on: HOP-62
HL-60 = tested on: HL-60
COLO 205 = tested on: COLO 205
NCI-H460 = tested on: NCI-H460
SK-MEL-5 = tested on: SK-MEL-5
SN12C = tested on: SN12C
HOP-92 = tested on: HOP-92
DMS-273 = tested on: DMS-273
UACC-257 = tested on: UACC-257
M19-MEL = tested on: M19-MEL
LXFL 529 = tested on: LXFL 529
Malme-3M = tested on: Malme-3M
CCRF-CEM = tested on: CCRF-CEM
DLD-1 = tested on: DLD-1
IGROV-1 = tested on: IGROV-1
HT-29 = tested on: HT-29
SNB-19 = tested on: SNB-19
HCT-15 = tested on: HCT-15
RPMI-8226 = tested on: RPMI-8226
KM-20L2 = tested on: KM-20L2
UO-31 = tested on: UO-31
HCT-116 = tested on: HCT-116
CAKI-1 = tested on: CAKI-1
NCI-H226 = tested on: NCI-H226
TK-10 = tested on: TK-10
M14 = tested on: M14
KM12 = tested on: KM12
DMS-114 = tested on: DMS-114
SNB-78 = tested on: SNB-78
RXF 631 = tested on: RXF 631
LOX IMVI = tested on: LOX IMVI
K562 = tested on: K562
RXF 393 = tested on: RXF 393
U-251 = tested on: U-251
OVCAR-8 = tested on: OVCAR-8
SW-620 = tested on: SW-620
SF-268 = tested on: SF-268
OVCAR-3 = tested on: OVCAR-3
SNB-75 = tested on: SNB-75
HCC 2998 = tested on: HCC 2998
NCI-H23 = tested on: NCI-H23
SK-OV-3 = tested on: SK-OV-3
SK-MEL-2 = tested on: SK-MEL-2

For `CCOC(OCC)c1ccc(/C=C/c2cc(OC)c(OC)c(OC)c2)cc1`, the GI50 (EKVX) was 33 µM (inactive), the GI50 (HOP-18) was 61.4 µM (inactive) and the GI50 (UACC-62) was 16.4 µM (inactive). The GI50 (SF-539) was 15.8 µM (inactive), the GI50 (ACHN) was 37.8 µM (inactive) and the GI50 (SF-295) was 19.2 µM (inactive). The GI50 (786-0) was 23.3 µM (inactive), the GI50 (A498) was 18.8 µM (inactive) and the GI50 (A549) was 27.7 µM (inactive). The GI50 (NCI-H522) was 25.2 µM (inactive), the GI50 (SK-MEL-28) was 21 µM (inactive) and the GI50 (OVCAR-4) was 22.3 µM (inactive). For the same compound, the GI50 (OVCAR-5) was 11.4 µM (inactive), the GI50 (HOP-62) was 19.8 µM (inactive) and the GI50 (HL-60) was 11.7 µM (inactive). For the same compound, the GI50 (COLO 205) was 18.7 µM (inactive), the GI50 (NCI-H460) was 19.1 µM (inactive) and the GI50 (SK-MEL-5) was 15.2 µM (inactive). The GI50 (SN12C) was 18.9 µM (inactive), the GI50 (HOP-92) was 21.8 µM (inactive) and the GI50 (DMS-273) was 17.6 µM (inactive). The GI50 (UACC-257) was 20.2 µM (inactive), the GI50 (M19-MEL) was 19.9 µM (inactive) and the GI50 (LXFL 529) was 16.1 µM (inactive). The GI50 (Malme-3M) was 17.1 µM (inactive), the GI50 (CCRF-CEM) was 12.9 µM (inactive) and the GI50 (DLD-1) was 16.1 µM (inactive). The GI50 (IGROV-1) was 32.7 µM (inactive), the GI50 (HT-29) was 16.9 µM (inactive) and the GI50 (SNB-19) was 29 µM (inactive). For the same compound, the GI50 (HCT-15) was 15.9 µM, the GI50 (RPMI-8226) was 17.1 µM (inactive) and the GI50 (KM-20L2) was 18.7 µM (inactive). The GI50 (UO-31) was 15.1 µM (inactive), the GI50 (HCT-116) was 17 µM (inactive) and the GI50 (CAKI-1) was 24.9 µM (inactive). The GI50 (NCI-H226) was 30.4 µM (inactive), the GI50 (TK-10) was 33.4 µM (inactive) and the GI50 (M14) was 17.7 µM (inactive). The GI50 (KM12) was > 10 µM (inactive), the GI50 (DMS-114) was 20.7 µM (inactive) and the GI50 (SNB-78) was 27 µM (inactive). For the same compound, the GI50 (RXF 631) was 20 µM (inactive), the GI50 (LOX IMVI) was 11.1 µM (inactive) and the GI50 (K562) was 17.1 µM (inactive). For the same compound, the GI50 (RXF 393) was 19.8 µM (inactive), the GI50 (U-251) was 16.3 µM (inactive) and the GI50 (OVCAR-8) was 26.9 µM (inactive). The GI50 (SW-620) was 22.7 µM (inactive), the GI50 (SF-268) was 23.1 µM (inactive) and the GI50 (OVCAR-3) was 18 µM (inactive). The GI50 (SNB-75) was 19.5 µM (inactive).
With `c1ccc(C(c2ccccc2)c2cccnc2)cc1` the GI50 (EKVX) was 99.5 µM (inactive), the GI50 (HOP-18) was > 100 µM (inactive) and the GI50 (UACC-62) was > 100 µM (inactive). For the same compound, the GI50 (SF-539) was > 100 µM (inactive), the GI50 (ACHN) was > 100 µM (inactive) and the GI50 (SF-295) was > 100 µM (inactive). For the same compound, the GI50 (786-0) was > 100 µM (inactive), the GI50 (A498) was > 100 µM (inactive) and the GI50 (A549) was 88.1 µM (inactive). The GI50 (SK-MEL-28) was > 100 µM (inactive), the GI50 (HCC 2998) was > 100 µM (inactive) and the GI50 (OVCAR-4) was > 100 µM (inactive). The GI50 (OVCAR-5) was > 100 µM (inactive), the GI50 (HOP-62) was > 100 µM (inactive) and the GI50 (COLO 205) was > 100 µM (inactive). For the same compound, the GI50 (NCI-H460) was > 100 µM (inactive), the GI50 (SK-MEL-5) was 83.8 µM (inactive) and the GI50 (NCI-H23) was 65.8 µM (inactive). For the same compound, the GI50 (SN12C) was > 100 µM (inactive), the GI50 (DMS-273) was > 100 µM (inactive) and the GI50 (UACC-257) was > 100 µM (inactive). The GI50 (M19-MEL) was > 100 µM (inactive), the GI50 (SK-OV-3) was > 100 µM (inactive) and the GI50 (Malme-3M) was > 100 µM (inactive). The GI50 (CCRF-CEM) was > 100 µM (inactive), the GI50 (DLD-1) was > 100 µM (inactive) and the GI50 (IGROV-1) was > 100 µM (inactive). For the same compound, the GI50 (HT-29) was > 100 µM (inactive), the GI50 (SNB-19) was > 100 µM (inactive) and the GI50 (HCT-15) was over 100 µM. For the same compound, the GI50 (RPMI-8226) was 46.1 µM (inactive), the GI50 (SK-MEL-2) was > 100 µM (inactive) and the GI50 (KM-20L2) was > 100 µM (inactive). For the same compound, the GI50 (UO-31) was 97.9 µM (inactive), the GI50 (HCT-116) was > 100 µM (inactive) and the GI50 (CAKI-1) was > 100 µM (inactive). For the same compound, the GI50 (NCI-H226) was > 100 µM (inactive), the GI50 (TK-10) was > 100 µM (inactive) and the GI50 (M14) was > 100 µM (inactive). For the same compound, the GI50 (KM12) was > 100 µM (inactive), the GI50 (DMS-114) was 82 µM (inactive) and the GI50 (SNB-78) was > 100 µM (inactive). For the same compound, the GI50 (RXF 631) was > 100 µM (inactive), the GI50 (LOX IMVI) was > 100 µM (inactive) and the GI50 (K562) was 38.3 µM (inactive). For the same compound, the GI50 (U-251) was > 100 µM (inactive), the GI50 (OVCAR-8) was 99.3 µM (inactive) and the GI50 (SW-620) was > 100 µM (inactive). The GI50 (SF-268) was > 100 µM (inactive), the GI50 (OVCAR-3) was > 100 µM (inactive) and the GI50 (SNB-75) was 69 µM (inactive).
